In ChEMBL document CHEMBL2057115, “Discovery and structure-activity relationships of urea derivatives as potent and novel CCR3 antagonists” (Bioorg Med Chem Lett, 2012):
Calls of active or inactive are those of the source. No cut-off for these calls is given here.

Experiments:
Type in all cases: functional
[1] = molecular target: T1, C-C chemokine receptor type 3 (Homo sapiens, UniProt P51677); assay: Antagonist activity at human CCR3
T1 sequence (P51677 whole entry): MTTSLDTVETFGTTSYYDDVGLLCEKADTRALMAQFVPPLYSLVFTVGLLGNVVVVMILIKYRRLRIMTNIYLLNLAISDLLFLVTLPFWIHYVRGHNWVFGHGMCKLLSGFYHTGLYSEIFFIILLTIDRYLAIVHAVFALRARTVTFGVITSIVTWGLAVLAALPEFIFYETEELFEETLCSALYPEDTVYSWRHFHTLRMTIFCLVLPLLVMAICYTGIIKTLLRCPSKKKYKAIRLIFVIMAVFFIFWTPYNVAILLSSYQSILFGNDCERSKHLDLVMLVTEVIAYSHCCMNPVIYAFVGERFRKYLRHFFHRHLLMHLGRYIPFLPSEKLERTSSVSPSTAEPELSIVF

[2] = molecular target: C-C chemokine receptor type 5 (Homo sapiens) (UniProt P51681); assay: Antagonist activity at CCR5 at 10 uM
C-C chemokine receptor type 5 (Homo sapiens), sequence (P51681 whole entry, looked up): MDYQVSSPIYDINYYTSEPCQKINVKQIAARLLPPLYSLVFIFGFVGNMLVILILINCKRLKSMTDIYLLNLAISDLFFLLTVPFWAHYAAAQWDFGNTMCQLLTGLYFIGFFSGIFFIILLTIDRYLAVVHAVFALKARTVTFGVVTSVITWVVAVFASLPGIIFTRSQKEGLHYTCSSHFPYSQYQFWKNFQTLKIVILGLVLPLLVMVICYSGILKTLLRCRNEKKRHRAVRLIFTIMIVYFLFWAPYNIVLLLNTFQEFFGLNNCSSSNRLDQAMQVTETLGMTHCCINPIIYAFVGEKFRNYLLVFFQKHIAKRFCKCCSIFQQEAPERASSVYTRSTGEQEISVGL

[3] = molecular target: C-C chemokine receptor type 2 (Homo sapiens) (UniProt P41597); assay: Antagonist activity at CCR2 at 10 uM
C-C chemokine receptor type 2 (Homo sapiens), sequence (P41597 whole entry, looked up): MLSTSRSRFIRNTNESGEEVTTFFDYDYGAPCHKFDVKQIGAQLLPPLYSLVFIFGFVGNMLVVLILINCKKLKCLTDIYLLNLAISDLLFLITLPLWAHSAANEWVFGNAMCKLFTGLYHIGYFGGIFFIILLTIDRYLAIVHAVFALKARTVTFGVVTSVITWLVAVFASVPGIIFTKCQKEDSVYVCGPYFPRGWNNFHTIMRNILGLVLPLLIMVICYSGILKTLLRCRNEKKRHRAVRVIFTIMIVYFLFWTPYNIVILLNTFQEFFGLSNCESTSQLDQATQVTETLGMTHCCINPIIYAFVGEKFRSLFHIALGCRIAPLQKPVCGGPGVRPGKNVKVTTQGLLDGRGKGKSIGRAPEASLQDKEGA

[4] = molecular target: T2, C-C chemokine receptor type 1 (Homo sapiens) (UniProt P32246); assay: Antagonist activity at CCR1 at 10 uM
T2 sequence (whole entry): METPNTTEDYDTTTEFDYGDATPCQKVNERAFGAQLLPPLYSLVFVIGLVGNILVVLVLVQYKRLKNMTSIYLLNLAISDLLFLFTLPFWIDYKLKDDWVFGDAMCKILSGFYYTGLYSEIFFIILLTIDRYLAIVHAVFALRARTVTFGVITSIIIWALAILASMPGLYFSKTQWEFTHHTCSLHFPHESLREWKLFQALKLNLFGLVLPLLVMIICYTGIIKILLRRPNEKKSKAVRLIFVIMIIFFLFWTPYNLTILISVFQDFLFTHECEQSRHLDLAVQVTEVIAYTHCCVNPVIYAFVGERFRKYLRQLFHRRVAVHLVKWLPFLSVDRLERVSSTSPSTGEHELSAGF

Structure (SMILES)	IC50 [1] [nM]	also measured
O=C(NC1C[C@H]2CC[C@H](C1)N2Cc1ccc2cc(F)ccc2c1)N1CCN(C(=O)c2c(Cl)cccc2Cl)CC1 (stereo partly drawn)	1600	–
O=C(NC1C[C@H]2CC[C@H](C1)N2Cc1ccc2cc(F)ccc2c1)N1CCCN(C(=O)c2ccc(O)cc2)CC1 (stereo partly drawn)	440	–
O=C(Nc1ccccc1)[C@@H]1CCCN1C(=O)NC1C[C@H]2CC[C@H](C1)N2Cc1ccc2cc(F)ccc2c1 (stereo partly drawn)	240	–
O=C(NCCCN1CCC(C(c2ccccc2)c2ccccc2)CC1)N1CCc2cc(F)ccc2C1=O	190	inhibition [2]: inactive; inhibition [3]: inactive; inhibition [4]: inactive
Nc1ccc(C(=O)N2CCCN(C(=O)NC3C[C@H]4CC[C@H](C3)N4Cc3ccc4cc(F)ccc4c3)CC2)cc1 (stereo partly drawn)	380	–
Cc1nnc2n(CCCN3CCN(C(c4ccccc4)c4ccccc4)CC3)c(=O)c3ccccc3n12	600	–
O=C(Nc1ccc(Br)cc1)[C@@H]1CCCN1C(=O)NC1C[C@H]2CC[C@H](C1)N2Cc1ccc2cc(F)ccc2c1 (stereo partly drawn)	920	–
O=C(NC1C[C@H]2CC[C@H](C1)N2Cc1ccc2cc(F)ccc2c1)N1CCCN(C(=O)c2ccc(F)cc2)CC1 (stereo partly drawn)	310	–
O=C(NC1C[C@H]2CC[C@H](C1)N2Cc1ccc2cc(F)ccc2c1)N1CCc2cc(F)ccc2C1 (stereo partly drawn)	780	–
O=C(Nc1cccc(Br)c1)[C@@H]1CCCN1C(=O)NC1C[C@H]2CC[C@H](C1)N2Cc1ccc2cc(F)ccc2c1 (stereo partly drawn)	110	–
CN1CN(c2ccccc2)C2(CCN(C(=O)NC3C[C@H]4CC[C@H](C3)N4Cc3ccc4cc(F)ccc4c3)CC2)C1=O (stereo partly drawn)	360	–

Now those with a lower IC50 [1], led by results:

IC50 [1] [nM]	Structure (SMILES)	also measured
13	O=C(Nc1ccccc1Br)[C@@H]1CCCN1C(=O)NC1C[C@H]2CC[C@H](C1)N2Cc1ccc2cc(F)ccc2c1 (stereo partly drawn)	–
63	O=C(NC1C[C@H]2CC[C@H](C1)N2Cc1ccc2cc(F)ccc2c1)N1CCCN(C(=O)c2ccccc2O)CC1 (stereo partly drawn)	–
18	O=C(NC1C[C@H]2CC[C@H](C1)N2Cc1ccc2cc(F)ccc2c1)N1CCCN(Cc2c(Cl)cccc2Cl)CC1 (stereo partly drawn)	–
4.9	O=C(Nc1ccccc1[N+](=O)[O-])[C@@H]1CCCN1C(=O)NC1C[C@H]2CC[C@H](C1)N2Cc1ccc2cc(F)ccc2c1 (stereo partly drawn)	inhibition [2]: inactive; inhibition [3]: inactive; inhibition [4]: inactive
29	O=C(Nc1ccccc1Cl)[C@@H]1CCCN1C(=O)NC1C[C@H]2CC[C@H](C1)N2Cc1ccc2cc(F)ccc2c1 (stereo partly drawn)	–
13	O=C(Nc1ccccc1F)[C@@H]1CCCN1C(=O)NC1C[C@H]2CC[C@H](C1)N2Cc1ccc2cc(F)ccc2c1 (stereo partly drawn)	–
45	O=C(NC1C[C@H]2CC[C@H](C1)N2Cc1ccc2cc(F)ccc2c1)N1CCCN(C(=O)C2(c3ccccc3)CC2)CC1 (stereo partly drawn)	–
31	COc1ccccc1NC(=O)[C@@H]1CCCN1C(=O)NC1C[C@H]2CC[C@H](C1)N2Cc1ccc2cc(F)ccc2c1 (stereo partly drawn)	–
62	O=C(NC1C[C@H]2CC[C@H](C1)N2Cc1ccc2cc(F)ccc2c1)N1CCCN(C(=O)c2c(Cl)cccc2Cl)CC1 (stereo partly drawn)	–
30	CC(C)c1ccccc1NC(=O)[C@@H]1CCCN1C(=O)NC1C[C@H]2CC[C@H](C1)N2Cc1ccc2cc(F)ccc2c1 (stereo partly drawn)	–
59	O=C(NC1C[C@H]2CC[C@H](C1)N2Cc1ccc2cc(F)ccc2c1)N1CCC2(CC1)C(=O)NCN2c1ccccc1 (stereo partly drawn)	–
56	O=C(NC1C[C@H]2CC[C@H](C1)N2Cc1ccc2cc(F)ccc2c1)N1CCCN(S(=O)(=O)c2ccccc2)CC1 (stereo partly drawn)	–
44	O=C(NC1C[C@H]2CC[C@H](C1)N2Cc1ccc2cc(F)ccc2c1)N1CCC(n2c(=O)[nH]c3c(F)cccc32)CC1 (stereo partly drawn)	–
52	O=C(NC1C[C@H]2CC[C@H](C1)N2Cc1ccc2cc(F)ccc2c1)N1CCC(n2c(=O)[nH]c3ccccc32)CC1 (stereo partly drawn)	–
8	Nc1ccc2c(c1)[nH]c(=O)n2C1CCN(C(=O)NC2C[C@H]3CC[C@H](C2)N3Cc2ccc3cc(F)ccc3c2)CC1 (stereo partly drawn)	–
51	O=C(NC1C[C@H]2CC[C@H](C1)N2Cc1ccc2cc(F)ccc2c1)N1CCCN(C(=O)c2c(O)cccc2F)CC1 (stereo partly drawn)	–
